Columns and labels:
Type in all cases: cell-based, human
[1] = system: HCT-116 cells; experiment: Inhibition test for sphere-forming ability of cancer cells (Test Example 1), HCT-116; conditions: for IC50: HCT-116 cells, concentration for 50% inhibition of cell proliferation, read-out: IC50 (μmol/L) HCT-116 (Sphere IC50 value); for inhibitory effect on the sphere-forming ability of cancer cells: Test Example 1, summary in words, cell line not given (HCT-116, HT-29, FaDu tested)
Summary of the method: (§1)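 HCT-116, HT-29 and FaDu cells seeded at 350-800 cells/well on ultra-low attachment plates in serum-free DMEM/F12 with B27, 20 ng/mL EGF, 10 ng/mL bFGF and 5 μg/mL insulin. Compound given at 0.1% DMSO for 4 days; viable cells measured by CellTiter-Glo to give Sphere IC50 (μmol/L).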

[2] = system: HT-29 cells; experiment: Inhibition test for sphere-forming ability of cancer cells (Test Example 1), HT-29; conditions: concentration for 50% inhibition of cell proliferation, read-out: IC50 (μmol/L) HT-29 (Sphere IC50 value)
Summary of the method: as §1

[3] = system: FaDu cells; experiment: Inhibition test for sphere-forming ability of cancer cells (Test Example 1), FaDu; conditions: concentration for 50% inhibition of cell proliferation, read-out: IC50 (μmol/L) FaDu (Sphere IC50 value)
Summary of the method: as §1

[4] = system: HCT-116 cells; experiment: Inhibition test for sphere-forming ability of cancer cells in the presence of BSA (Test Example 2), HCT-116; conditions: for IC50: HCT-116 cells, in the presence of 5% BSA, cultured 4 days
Summary of the method: (§2)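 Spheres grown 4 days in ultra-low-attachment wells, 350-800 cells/well, in DMEM/F12 with 2% B27, 20 ng/mL EGF, 10 ng/mL bFGF, 5 μg/mL insulin and 5% BSA; 0.1% DMSO final. Viable cells read by CellTiter-Glo luminescence; Sphere IC50 (μmol/L) for 50% proliferation inhibition.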

[5] = system: HT-29 cells; experiment: Inhibition test for sphere-forming ability of cancer cells in the presence of BSA (Test Example 2), HT-29; conditions: in the presence of 5% BSA, cultured 4 days
Summary of the method: as §2

[6] = system: FaDu cells; experiment: Inhibition test for sphere-forming ability of cancer cells in the presence of BSA (Test Example 2), FaDu; conditions: in the presence of 5% BSA, cultured 4 days
Description: Human colorectal cancer-derived HCT-116 cells, human colon-adenocarcinoma-derived HT-29 cells, and human pharyngeal cancer-derived FaDu cells were available from American Type Culture Collection (ATCC). HCT-116 cells and HT-29 cells were cultured at 37° C. under 5% CO2 using the McCoy's 5a medium containing 10% fetal bovine serum (FBS) and 1% penicillin/streptomycin, and FaDu cells were cultured at 37° C. under 5% CO2 using the MEM medium containing 10% FBS, 1% non-essential amino acid, 1% sodium pyruvate, 5% bovine serum albumin (BSA), and 1% penicillin/streptomycin. HCT-116 cells, HT-29 cells, and FaDu cells were seeded in a 384 Well Black Clear Bottom Ultra-Low Attachment Microplate (Corning Cat. No. 3827) in an amount of 350-800 cells/well using the DMEM/F12 medium containing 2% B27 supplement (GIBCO), 20 ng/mL epidermal growth factor (EGF) (peprotech), 10 ng/mL basic fibroblast growth factor (bFGF) (peprotech), 5 μg/mL insulin (Sigma), 5% bovine serum albumin (BSA), and 1% penicillin/streptomycin. Each test compound was added into each well to adjust the final concentration of DMSO to 0.1%, and the cells were cultured for 4 days. The number of viable cells in each well was then measured with CellTiter-Glo® Luminescent Cell Viability Assay (Promega) to calculate the concentration of each test compound for 50% inhibition of cell proliferation (Sphere IC50 value; μmol/L).
The experiment of Test Example 2 was performed for each compound of each Example.
The concentration of each test compound for 50% inhibition of cell proliferation (Sphere IC50 value; μmol/L) is shown in the following Table.

| IC50 [1] [µmol/L] | IC50 [2] [µmol/L] | IC50 [3] [µmol/L] | IC50 [4] [µM] | IC50 [5] [µM] | IC50 [6] [µM] | IC50 ([1]; Homo sapiens) [µmol/L] | IC50 ([2]; Homo sapiens) [µmol/L] | IC50 ([3]; Homo sapiens) [µmol/L] | IC50 ([4]; Homo sapiens, HCT-116, 96 h) [µM] | IC50 ([5]; Homo sapiens, 96 h) [µM] | IC50 ([6]; Homo sapiens, 96 h) [µM] | SMILES | inhibitory effect on the sphere-forming ability of cancer cells [1] | inhibitory effect on the sphere-forming ability of cancer cells ([4]; Test Example 2, in the presence of 5% BSA, summary in words, cell line not given (HCT-116, HT-29, FaDu tested)) |
| --- | --- | --- | --- | --- | --- | --- | --- | --- | --- | --- | --- | --- | --- | --- |
| 5.2 | 4.74 | 8 | > 10 | 6.78 | 5.06 | – | – | – | – | – | – | COc1ccc(C(=O)Nc2cn(Cc3ccc(F)cc3F)cn2)cc1OC [Example 148] | – | – |
| 4.77 | 0.75 | 0.89 | 7.75 | 6.18 | 2.42 | – | – | – | – | – | – | COc1ccc(C(=O)Nc2cn(Cc3cc(F)ccc3F)cn2)cc1OC [Example 149] | – | – |
| 0.69 | 3.56 | 6.21 | > 10 | > 10 | 7.81 | – | – | – | – | – | – | COc1ccc(C(=O)Nc2cn(Cc3c(F)cccc3F)cn2)cc1OC [Example 150] | – | – |
| – | – | – | – | – | – | 0.35 | 0.09 | 0.31 | 0.65 | 0.55 | 0.33 | COc1ccc(C(=O)Nc2cn(Cc3ccc(F)c(F)c3)cn2)cc1OC [Example 151, 3,4-dimethoxy-N-[1-(3,4-difluorobenzyl)-1H-imidazol-4-yl]benzamide] | particularly potent inhibitory effect | – |
| – | – | – | – | – | – | 0.09 | 0.09 | 0.42 | 0.57 | 0.63 | 0.15 | COc1ccc(C(=O)Nc2cn(Cc3cc(F)cc(F)c3)cn2)cc1OC [Example 152, 3,4-dimethoxy-N-[1-(3,5-difluorobenzyl)-1H-imidazol-4-yl]benzamide] | particularly potent inhibitory effect | – |
| 0.66 | 0.73 | 0.82 | 6.39 | 3.2 | 0.66 | – | – | – | – | – | – | COc1ccc(C(=O)Nc2cn(Cc3ccc(F)c(F)c3F)cn2)cc1OC [Example 153] | – | – |
| 0.71 | 0.8 | 0.88 | > 10 | 0.89 | 0.6 | – | – | – | – | – | – | COc1ccc(C(=O)Nc2cn(Cc3cc(F)cc(F)c3F)cn2)cc1OC [Example 154] | – | – |
| 3.05 | 6.62 | 8.72 | > 10 | > 10 | 7.03 | – | – | – | – | – | – | COc1ccc(C(=O)Nc2cn(Cc3c(F)ccc(F)c3F)cn2)cc1OC [Example 155] | – | – |
| 3.56 | 1.51 | 1.73 | > 10 | 5.46 | 5.04 | – | – | – | – | – | – | COc1ccc(C(=O)Nc2cn(Cc3ccc(F)cc3C(F)(F)F)cn2)cc1OC [Example 163] | – | – |
| – | – | – | – | – | – | 0.06 | 0.05 | 0.05 | 0.36 | 0.06 | 0.04 | COc1ccc(C(=O)Nc2cn(Cc3cc(F)c(F)c(F)c3)cn2)cc1OC [Example 236, 3,4-dimethoxy-N-[1-(3,4,5-trifluorobenzyl)-1H-imidazol-4-yl]benzamide] | particularly potent inhibitory effect | particularly potent inhibitory effect |

Continued, molecule first:

| SMILES | IC50 [1] [µmol/L] | IC50 [2] [µmol/L] | IC50 [3] [µmol/L] | IC50 [4] [µM] | IC50 [5] [µM] | IC50 [6] [µM] | IC50 ([1]; Homo sapiens) [µmol/L] | IC50 ([2]; Homo sapiens) [µmol/L] | IC50 ([3]; Homo sapiens) [µmol/L] | IC50 ([4]; Homo sapiens, HCT-116, 96 h) [µM] | IC50 ([5]; Homo sapiens, 96 h) [µM] | IC50 ([6]; Homo sapiens, 96 h) [µM] | inhibitory effect on the sphere-forming ability of cancer cells [1] | inhibitory effect on the sphere-forming ability of cancer cells ([4]; Test Example 2, in the presence of 5% BSA, summary in words, cell line not given (HCT-116, HT-29, FaDu tested)) |
| --- | --- | --- | --- | --- | --- | --- | --- | --- | --- | --- | --- | --- | --- | --- |
| COc1ccc(C(=O)Nc2cn(Cc3cc(F)c(F)c(F)c3F)cn2)cc1OC [Example 156] | 0.54 | 0.39 | 0.55 | 5.07 | 0.59 | 0.42 | – | – | – | – | – | – | – | – |
| COc1ccc(C(=O)Nc2cn(Cc3c(F)c(F)c(F)c(F)c3F)cn2)cc1OC [Example 157] | 7.33 | 6.89 | 8.46 | > 10 | 7.42 | 5.64 | – | – | – | – | – | – | – | – |
| O=C(Nc1cn(Cc2cccc(Cl)c2)cn1)c1cnc2[nH]ccc2c1 [Example 177] | 9.96 | 6.75 | 3.62 | > 10 | 6.39 | 5.26 | – | – | – | – | – | – | – | – |
| CNc1ccc(C(=O)Nc2cn(Cc3cccc(Cl)c3)cn2)cn1 [Example 225] | 6.76 | 0.99 | 6 | > 10 | 6.52 | 5.9 | – | – | – | – | – | – | – | – |
| CC(=O)Nc1ccc(C(=O)Nc2cn(Cc3cccc(Cl)c3)cn2)cn1 [Example 247, 6-(Acetylamino)-N-[1-(3-chlorobenzyl)-1H-imidazol-4-yl]nicotinamide] | – | – | – | – | – | – | 9.22 | 0.42 | 7.25 | 9.84 | 7.15 | 6.8 | – | – |
| COc1ccc(NC(=O)c2cn(Cc3cc(F)c(F)c(F)c3)cn2)cc1OC [Example 251, N-(3,4-Dimethoxyphenyl)-1-(3,4,5-trifluorobenzyl)-1H-imidazole-4-carboxamide] | – | – | – | – | – | – | 0.21 | 0.54 | 0.43 | 0.77 | 0.6 | 0.55 | – | – |
| O=C(Nc1ccc2c(O)cccc2c1)c1cn(Cc2cccc(Cl)c2)cn1 [Example 256] | 4.97 | 7.24 | 0.65 | 6.17 | 6.61 | 4.41 | – | – | – | – | – | – | – | – |
| Cc1csc(NC(=O)c2cn(Cc3cccc(Cl)c3)cn2)n1 [Example 257] | 0.8 | 0.8 | 0.71 | 7.46 | 5.99 | 4.44 | – | – | – | – | – | – | – | – |
| Cc1cccc(NC(=O)c2cn(Cc3cccc(Cl)c3)cn2)n1 [Example 258] | 0.77 | 0.7 | 0.71 | 9.06 | 5.75 | 5.19 | – | – | – | – | – | – | – | – |
| O=C(Nc1ccc(Cn2cccn2)cc1)c1cn(Cc2cccc(Cl)c2)cn1 [Example 260] | 0.76 | 0.71 | 0.67 | 6.81 | 4.09 | 3.09 | – | – | – | – | – | – | – | – |
